According to US9108983B2, “Pyrrole compounds, a process for their preparation and pharmaceutical compositions containing them” (LES LABORATOIRES SERVIER, priority 2013, dated 2015):
Where a name gives a salt, the structure may show the parent alone.

How the values were obtained:
Bcl-2 protein = Bcl-2 protein (histag-Bcl-2, UniProtKB P10415) (Homo sapiens (Human), UniProt P10415); test: Inhibition of Bcl-2 by the fluorescence polarisation technique; format: binding; conditions: incubation for 2 hours, read-out: IC50 (nM) Bcl-2 FP
Chain of Bcl-2 protein (P10415 whole entry): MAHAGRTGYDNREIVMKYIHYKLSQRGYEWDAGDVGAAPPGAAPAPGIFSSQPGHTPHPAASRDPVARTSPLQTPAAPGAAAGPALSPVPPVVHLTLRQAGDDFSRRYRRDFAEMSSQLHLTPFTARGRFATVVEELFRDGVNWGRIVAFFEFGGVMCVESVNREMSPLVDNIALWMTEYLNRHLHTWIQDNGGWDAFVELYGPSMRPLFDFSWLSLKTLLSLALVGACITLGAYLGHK
Experimental: The fluorescence polarisation tests were carried out on microplates (384 wells). The Bcl-2 protein, labelled (histag-Bcl-2 such that Bcl-2 corresponds to the UniProtKB® primary accession number: P10415), at a final concentration of 2.50×10^−8 M, is mixed with a fluorescent peptide (Fluorescein-[…]), at a final concentration of 1.00×10^−8 M in a buffer solution (Hepes 10 mM, NaCl 150 mM, Tween20 0.05%, pH 7.4), in the presence or absence of increasing concentrations of test compounds. After incubation for 2 hours, the fluorescence polarisation is measured.

[1] = system: RS4;11 leukaemia tumour line; test: In vitro cytotoxicity (Microculture Tetrazolium Assay); format: cell-based; conditions: Homo sapiens, RS4-11, 48 h, RS4;11 cells, exposed for 48 hours, cell viability; read-out: IC50 (nM) MTT RS4;11
Experimental: The cytotoxicity studies were carried out on the RS4;11 leukaemia tumour line.
The cells are distributed onto microplates and exposed to the test compounds for 48 hours.
The cell viability is then quantified by a colorimetric assay, the Microculture Tetrazolium Assay (Cancer Res., 1987, 47, 939-942).

SMILES	IC50 (Bcl-2 protein)	IC50 [1]
Cc1c(C(=O)N(c2ccc(O)cc2)c2cc3ccn(C)c3cn2)cc(-c2cc(Cl)ccc2C(=O)N2Cc3ccccc3C[C@H]2CN2CCOCC2)n1C [Example 389, 5-(5-Chloro-2-{[(3S)-3-(morpholin-4-ylmethyl)-3,4-dihydroisoquinolin-2(1H)-yl]carbonyl}phenyl)-N-(4-hydroxyphenyl)-1,2-dimethyl-N-(1-methyl-1H-pyrrolo[2,3-c]pyridin-5-yl)-1H-pyrrole-3-carboxamide hydrochloride]	14.7 nM	208 nM
Cc1c(C(=O)N(c2ccccc2)c2cnc3c(c2)CCN3C)cc(-c2cc(Cl)ccc2C(=O)N2Cc3ccccc3C[C@H]2CN2CCOCC2)n1C [Example 129, 5-(5-Chloro-2-{[(3S)-3-(morpholin-4-ylmethyl)-3,4-dihydroisoquinolin-2(1H)-yl]carbonyl}phenyl)-1,2-dimethyl-N-(1-methyl-2,3-dihydro-1H-pyrrolo[2,3-b]-pyridin-5-yl)-N-phenyl-1H-pyrrole-3-carboxamide]	18.1 nM	275 nM
Cc1c(C(=O)N(c2ccc(O)cc2)c2cnc3c(ccn3C)c2)cc(-c2cc(Cl)ccc2C(=O)N2Cc3ccccc3C[C@H]2C)n1C [Example 63, 5-(5-Chloro-2-{[(3R)-3-methyl-3,4-dihydroisoquinolin-2(1H)-yl]-carbonyl}phenyl)-N-(4-hydroxyphenyl)-1,2-dimethyl-N-(1-methyl-1H-pyrrolo[2,3-b]-pyridin-5-yl)-1H-pyrrole-3-carboxamide]	5.1 nM	11.2 nM
Cc1c(C(=O)N(c2ccc(O)cc2)c2cccc(F)c2)cc(-c2cc3c(cc2C(=O)N2Cc4ccccc4C[C@H]2CN2CCOCC2)OCO3)n1C [Example 16, N-(3-Fluorophenyl)-N-(4-hydroxyphenyl)-1,2-dimethyl-5-(6-{[(3S)-3-(morpholin-4-ylmethyl)-3,4-dihydroisoquinolin-2(1H)-yl]carbonyl}-1,3-benzodioxol-5-yl)-1H-pyrrole-3-carboxamide hydrochloride]	12.6 nM	22.7 nM
Cc1c(C(=O)N(c2ccc(O)cc2)c2ccc3c(cnn3C)c2)cc(-c2cc(F)ccc2C(=O)N2Cc3ccccc3C[C@H]2CN2CCOCC2)n1C [Example 12, 5-(5-Fluoro-2-{[(3S)-3-(morpholin-4-ylmethyl)-3,4-dihydroisoquinolin-2(1H)-yl]carbonyl}phenyl)-N-(4-hydroxyphenyl)-1,2-dimethyl-N-(1-methyl-1H-indazol-5-yl)-1H-pyrrole-3-carboxamide hydrochloride]	5.5 nM	39.6 nM
C[C@@H]1Cc2ccccc2CN1C(=O)c1cc2c(cc1-c1cc(C(=O)N(c3ccc(O)cc3)c3cnn(C)c3)c(CN3CCOCC3)n1C)OCO2 [Example 82, N-(4-Hydroxyphenyl)-1-methyl-5-(6-{[(3R)-3-methyl-3,4-dihydroisoquinolin-2(1H)-yl]carbonyl}-1,3-benzodioxol-5-yl)-N-(1-methyl-1H-pyrazol-4-yl)-2-(morpholin-4-ylmethyl)-1H-pyrrole-3-carboxamide]	19.5 nM	427 nM

More lines, in order of falling IC50 (Bcl-2 protein), values ahead:

IC50 (Bcl-2 protein)	SMILES	IC50 [1]
134 nM	Cc1c(C(=O)N(C)c2ccc(O)cc2)cc(-c2ccc(CNS(=O)(=O)CCc3ccc(F)cc3)cc2C(=O)N2Cc3ccccc3C[C@H]2C)n1C [Example 59, 5-(4-[({[2-(4-Fluorophenyl)ethyl]sulphonyl}amino)methyl]-2-{[(3R)-3-methyl-3,4-dihydroisoquinolin-2(1H)-yl]carbonyl}phenyl)-N-(4-hydroxyphenyl)-N,1,2-trimethyl-1H-pyrrole-3-carboxamide]	> 600 nM
49.1 nM	Cc1c(C(=O)N(c2ccc(O)cc2)c2ccc(C#N)s2)cc(-c2cc(Cl)ccc2C(=O)N2Cc3ccccc3C[C@H]2CN2CCOCC2)n1C [Example 436, 5-(5-Chloro-2-{[(3S)-3-(morpholin-4-ylmethyl)-3,4-dihydroisoquinolin-2(1H)-yl]carbonyl}phenyl)-N-(5-cyanothiophen-2-yl)-N-(4-hydroxyphenyl)-1,2-dimethyl-1H-pyrrole-3-carboxamide hydrochloride]	338 nM
21.9 nM	Cc1c(C(=O)N(c2ccccc2)c2cnc3c(ccn3C)c2)cc(-c2cc3c(cc2C(=O)N2Cc4ccccc4C[C@H]2CN2CCOCC2)OCO3)n1C [Example 65, 1,2-Dimethyl-N-(1-methyl-1H-pyrrolo[2,3-b]pyridin-5-yl)-5-(6-{[(3S)-3-(morpholin-4-ylmethyl)-3,4-dihydroisoquinolin-2(1H)-yl]carbonyl}-1,3-benzodioxol-5-yl)-N-phenyl-1H-pyrrole-3-carboxamide hydrochloride]	113 nM
11.3 nM	Cc1c(C(=O)N(c2ccc(O)cc2)c2cnccn2)cc(-c2cc(Cl)ccc2C(=O)N2Cc3ccccc3C[C@H]2CN2CCOCC2)n1C [Example 438, 5-(5-Chloro-2-{[(3S)-3-(morpholin-4-ylmethyl)-3,4-dihydroisoquinolin-2(1H)-yl]carbonyl}phenyl)-N-(4-hydroxyphenyl)-1,2-dimethyl-N-(pyrazin-2-yl)-1H-pyrrole-3-carboxamide hydrochloride]	379 nM
8.5 nM	Cc1c(C(=O)N(c2ccc(O)cc2)c2cc(C#N)ccn2)cc(-c2cc(Cl)ccc2C(=O)N2Cc3ccccc3C[C@H]2CN2CCOCC2)n1C [Example 110, 5-(5-Chloro-2-{[(3S)-3-(morpholin-4-ylmethyl)-3,4-dihydroisoquinolin-2(1H)-yl]carbonyl}phenyl)-N-(4-cyanopyridin-2-yl)-N-(4-hydroxyphenyl)-1,2-dimethyl-1H-pyrrole-3-carboxamide hydrochloride]	39.5 nM
4.6 nM	Cc1c(C(=O)N(c2ccc(O)cc2)c2cnn(C)c2)cc(-c2cc(Cl)ccc2C(=O)N2Cc3ccccc3C[C@H]2CN2CC3(CCO3)C2)n1C [Example 207, 5-(5-Chloro-2-{[(3S)-3-(1-oxa-6-azaspiro[3.3]hept-6-ylmethyl)-3,4-dihydroisoquinolin-2(1H)-yl]carbonyl}phenyl)-N-(4-hydroxyphenyl)-1,2-dimethyl-N-(1-methyl-1H-pyrazol-4-yl)-1H-pyrrole-3-carboxamide]	32.2 nM
3.8 nM	Cc1c(N(C(=O)c2cc(-c3cc(Cl)ccc3C(=O)N3Cc4ccccc4C[C@H]3CN3CCOCC3)n(C)c2)c2ccc(O)cc2)cc(C#N)n1C [Example 415, 5-(5-Chloro-2-{[(3S)-3-(morpholin-4-ylmethyl)-3,4-dihydroisoquinolin-2(1H)-yl]carbonyl}phenyl)-N-(5-cyano-1,2-dimethyl-1H-pyrrol-3-yl)-N-(4-hydroxyphenyl)-1-methyl-1H-pyrrole-3-carboxamide hydrochloride]	29.9 nM
2.8 nM	Cc1c(C(=O)N(c2ccc(O)cc2)c2cccc(C#N)c2)cc(-c2cc(F)ccc2C(=O)N2Cc3ccccc3C[C@H]2CN2CCOCC2)n1C [Example 419, N-(3-Cyanophenyl)-5-(5-fluoro-2-{[(3S)-3-(morpholin-4-ylmethyl)-3,4-dihydroisoquinolin-2(1H)-yl]carbonyl}phenyl)-N-(4-hydroxyphenyl)-1,2-dimethyl-1H-pyrrole-3-carboxamide hydrochloride]	15.8 nM
